# Test results from patent US4281009A, “Hydantoin derivatives” (Nippon Zoki Pharmaceutical Co., Ltd., priority 1978, dated 1981).
# What was measured:
# [1] = system: normal mice and SART stress mice; test: Analgesic effect, acetic acid writhing method; format: in vivo; conditions: Mus musculus, sc, 100 mg/Kg subcutaneously
# Procedure, shortened: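 Normal mice and mice after 8 days of SART stress (5 per group) received 100 mg/Kg compound subcutaneously. Writhing was then induced with 0.7% acetic acid in isotonic saline, 0.1 ml/10 g i.p. Writhes were counted over 15 minutes and compared with control mice.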
# [2] = system: normal mice and SART stress mice; test: Analgesic effect, tail pressure method (Randall-Selitto's device); format: in vivo, mice (ddY-strain male); conditions: for change in vivo at 100 mg/kg / change in vivo at 160 mg/kg: Mus musculus; for change in vivo at 160 mg/kg: peroral 160 mg/kg
# Procedure, shortened: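 Randall-Selitto tail pressure threshold measured 60 min after intraperitoneal dosing, expressed as post/pre-dose pressure ratio versus vehicle control (0.5% CMC-Na or 0.5% Tween 80, 10 ml/kg). For oral dosing, mean of readings at 30, 60, 90 and 120 min used.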
# Wistar-strain male rats = test: Antiulcerogenic effect on Shay's ulcer (operative ulcer); format: in vivo; conditions: 10 times
# Method: 6.2. Antiulcerogenic effect on Shay's ulcer (operative ulcer):
# Tests were carried out by using groups of rats each comprising 5-10 Wistar-strain male rats according to Shay method [Shay Harry; Gastroenterology,; 5, 43 (1945)]. Ulcers in the anterior stomach were classified on the following basis:
# 2. 1-5 small ulcers (diameter of less than 3 mm)
# 3. 6 or more small ulcers or one big ulcer (diameter of more than 3 mm)
# 4. two or more big ulcers
# dd-strain male mice [3] = test: Inhibitory effect on exploratory movements; format: in vivo; conditions: after 60 minutes
# Method: 4.2. Inhibitory effect on exploratory movements:
# Groups each comprising 16-35 dd-strain male mice were used. The compounds of the present invention were given intraperitoneally. After 60 minutes, exploratory movements for 15 minutes were measured with an exploratory movement recorder by a method of Tokyo Kyoiku University.
# ddY-strain male mice = test: Effect of prolongation of sleeping time (hexobarbital); format: in vivo; conditions: for change in vivo at 100 mg/kg / change in vivo at 300 mg/kg: Mus musculus, ip; for change in vivo at 100 mg/kg: 100 mg/kg intraperitoneal; for change in vivo at 300 mg/kg: 300 mg/kg intraperitoneal
# Procedure, shortened: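 Groups of 10 male ddY mice received compounds intraperitoneally along with intraperitoneal sodium hexobarbital. Loss of righting reflex was timed, and prolongation was measured against control mice.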
# [4] = Acute toxicity test (LD50, Litchfield-Wilcoxon), rats; conditions: rat, in vivo, ip, intraperitoneal
# Method: (§1) Toxicity tests were carried out by intraperitoneal administration of the compound of the present invention to groups each comprising 10 ICR-strain mice and SD-strain rats. LD50 was calculated by the Litchfield-Wilcoxon method based on the number of death 72 hours after the administration.
# isolated duodenum = test: Recovery of acetylcholine sensitivity of isolated duodenum of SART stress mice (Magnus method); format: in vivo, mice (dd-strain male); conditions: 6th day, Ach 10^-7 g/ml, Average ± S.E.
# Text: SART stress animals used in the tests described below were raised according to a method of Kita, et al. [Folia Pharmacol. Japan.: 71, 195-210 (1975)].
# 3. Effect of recovering acetylcholine (Ach) sensitivity of isolated intestinal tract:
# Groups each comprising at least 10 dd-strain male mice were used. The compounds of the present invention or other comparative drugs were given intraperitoneally once a day during the stress-causing operation. On the 6th day, Ach (10^-7 g/ml.) sensitivity of isolated duodenum was examined using the Magnus method.
# [5] = system: normal mice and SART stress mice; test: Analgesic effect, D'Amour-Smith method; format: in vivo, mice (ddY-strain male); conditions: for responders at 100 mg/kg / responders at 160 mg/kg: Mus musculus; for responders at 160 mg/kg: peroral 160 mg/kg; for Analgesic effect: peroral 50 mg/kg
# Procedure, shortened: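 ddY male normal mice and mice under 4-day SART stress (n=10/group); black-inked tail root irradiated with infrared rays (up to 15 s cutoff), escape latency recorded. Effect expressed as proportion of mice whose mean latency at 30, 60, 90 and 120 min post-dose was at least 2× pre-dose latency.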
# [6] = Acute toxicity test (LD50, Litchfield-Wilcoxon), mice; conditions: mouse, in vivo, ip, intraperitoneal
# Method: as §1
# dd-strain male mice [7] = test: Inhibitory effect on spontaneous motor activities (Animex method); format: in vivo; conditions: after 60 minutes
# Method: 4.1 Inhibitory effect on spontaneous motor activities:
# Groups each comprising 8-16 dd-strain male mice were used. The compounds of the present invention were given intraperitoneally. After 60 minutes, spontaneous motor activities for 15 minutes were measured by the Animex method.
# [8] = system: spontaneously hypertensive rats (SHR); test: Antihypertensive effect in spontaneously hypertensive rats; format: in vivo; conditions: 60 minutes
# Method: 8. Antihypertensive effect: Groups of rats each comprising 6-9 spontaneously hypertensive rats (SHR) were used. The compounds of the present invention or DPH was given intraperitoneally. The rate of antihypertension 60 minutes after the administration was determined.
# [9] = ip, 1 h, SART stress mice, intraperitoneal 100 mg/kg, 60 minutes
# [10] = ip, 1 h, normal mice, intraperitoneal 100 mg/kg, 60 minutes
# [11] = po, SART stress mice, peroral 100 mg/kg, average of 30, 60, 90 and 120 minutes
# [12] = po, SART stress mice, average of 30, 60, 90 and 120 minutes
# [13] = po, normal mice, peroral 100 mg/kg, average of 30, 60, 90 and 120 minutes
# [14] = po, normal mice, average of 30, 60, 90 and 120 minutes
# [15] = SART stress mice, intraperitoneal 50 mg/kg, 60 minutes
# [16] = normal mice, intraperitoneal 50 mg/kg, 60 minutes
# [17] = ip, SART stress mice, intraperitoneal 100 mg/kg
# [18] = ip, normal mice, intraperitoneal 100 mg/kg
# [19] = po, SART stress mice, peroral 100 mg/kg
# [20] = po, normal mice, peroral 100 mg/kg
# [21] = SART stress mice, peroral 50 mg/kg, average of 30, 60, 90 and 120 minutes
# [22] = normal mice, peroral 50 mg/kg, average of 30, 60, 90 and 120 minutes
smiles,measurement,setting,value
"COc1ccc(C2(c3ccc(OC)c(Cl)c3)NC(=O)NC2=O)cc1 (centres unmarked) [Compound 2, 5-(3-chloro-4-methoxyphenyl)-5-(4-methoxyphenyl)hydantoin]",inhibition in vivo at 100 mg/kg,[1]; SART stress mice,27.1%
same,inhibition in vivo at 100 mg/kg,[1]; normal mice,4.4%
same,change in vivo at 100 mg/kg,[2]; [9],139%
same,change in vivo at 100 mg/kg,[2]; [10],90.7%
same,change in vivo at 100 mg/kg,[2]; [11],70%
same,change in vivo at 160 mg/kg,[2]; [12],88.2%
same,change in vivo at 100 mg/kg,[2]; [13],37.3%
same,change in vivo at 160 mg/kg,[2]; [14],50.2%
same,Analgesic effect,[2]; [15],79.6%
same,Analgesic effect,[2]; [16],54.6%
same,Antiulcerogenic effect on Shay's ulcer (operative ulcer),Wistar-strain male rats; 100 mg/kg intraperitoneal,23.4%
same,Antiulcerogenic effect on Shay's ulcer (operative ulcer),Wistar-strain male rats; 150 mg/kg intraperitoneal,29.3%
same,Inhibitory effect on exploratory movements,dd-strain male mice [3]; 50 mg/kg intraperitoneal,29.0%
same,Inhibitory effect on exploratory movements,dd-strain male mice [3]; 100 mg/kg intraperitoneal,38.8%
same,Inhibitory effect on exploratory movements,dd-strain male mice [3]; 125 mg/kg intraperitoneal,47.8%
same,change in vivo at 100 mg/kg,ddY-strain male mice,55.9%
same,change in vivo at 300 mg/kg,ddY-strain male mice,248%
same,LD50 at 72 h,[4]; female,1540 mg/kg
same,LD50 at 72 h,[4]; male,1600 mg/kg
same,Ach-induced contraction of the isolated deodedum,isolated duodenum; 10 mg/kg/day intraperitoneal,80 ± 13%
same,responders at 100 mg/kg,[5]; [17],50%
same,responders at 100 mg/kg,[5]; [18],30%
same,responders at 100 mg/kg,[5]; [19],30%
same,responders at 160 mg/kg,"[5]; po, SART stress mice",60%
same,responders at 100 mg/kg,[5]; [20],10%
same,responders at 160 mg/kg,"[5]; po, normal mice",30%
same,LD50 at 72 h,[6]; female,920 mg/kg
same,LD50 at 72 h,[6]; male,1000 mg/kg
same,Inhibitory effect on spontaneous motor activities,dd-strain male mice [7]; 50 mg/kg intraperitoneal,39.8%
same,Inhibitory effect on spontaneous motor activities,dd-strain male mice [7]; 100 mg/kg intraperitoneal,50.1%
same,Inhibitory effect on spontaneous motor activities,dd-strain male mice [7]; 125 mg/kg intraperitoneal,56.3%
same,Rate of antihypertension,[8]; 150 mg/Kg intraperitoneal,22.4%
"O=C1NC(=O)C(c2cc(O)c(O)c(O)c2)(c2cc(O)c(O)c(O)c2)N1 [Compound 36, 5,5-Bis(3,4,5-trihydroxyphenyl)hydantoin]",inhibition in vivo at 100 mg/kg,[1]; SART stress mice,29.4%
same,inhibition in vivo at 100 mg/kg,[1]; normal mice,8.2%
same,change in vivo at 100 mg/kg,[2]; [9],180%
same,change in vivo at 100 mg/kg,[2]; [10],67%
same,change in vivo at 100 mg/kg,[2]; [11],102%
same,change in vivo at 100 mg/kg,[2]; [13],49.9%
same,Analgesic effect,[2]; [15],120.5%
same,Analgesic effect,[2]; [21],63.3%
same,Analgesic effect,[2]; [16],44.0%
same,Analgesic effect,[2]; [22],40.3%
same,Antiulcerogenic effect on Shay's ulcer (operative ulcer),Wistar-strain male rats; 100 mg/kg intraperitoneal,30.1%
same,Antiulcerogenic effect on Shay's ulcer (operative ulcer),Wistar-strain male rats; 150 mg/kg intraperitoneal,43.9%
same,Inhibitory effect on exploratory movements,dd-strain male mice [3]; 50 mg/kg intraperitoneal,30.6%
same,Inhibitory effect on exploratory movements,dd-strain male mice [3]; 100 mg/kg intraperitoneal,36.7%
same,change in vivo at 100 mg/kg,ddY-strain male mice,11.3%
same,change in vivo at 300 mg/kg,ddY-strain male mice,46.7%
same,LD50 at 72 h,[4]; female,1020 mg/kg
same,LD50 at 72 h,[4]; male,1320 mg/kg
same,Ach-induced contraction of the isolated deodedum,isolated duodenum; 10 mg/kg/day intraperitoneal,83 ± 8%
same,responders at 100 mg/kg,[5]; [17],60%
same,responders at 100 mg/kg,[5]; [18],40%
same,responders at 100 mg/kg,[5]; [19],30%
same,responders at 160 mg/kg,"[5]; po, SART stress mice",40%
same,responders at 100 mg/kg,[5]; [20],20%
same,responders at 160 mg/kg,"[5]; po, normal mice",30%
same,LD50 at 72 h,[6]; female,780 mg/kg
same,LD50 at 72 h,[6]; male,820 mg/kg
same,Inhibitory effect on spontaneous motor activities,dd-strain male mice [7]; 50 mg/kg intraperitoneal,37.8%
same,Inhibitory effect on spontaneous motor activities,dd-strain male mice [7]; 100 mg/kg intraperitoneal,49.1%
same,Rate of antihypertension,[8]; 150 mg/Kg intraperitoneal,19.8%
"O=C1NC(=O)C(c2ccc(O)cc2)(c2ccc(O)cc2)N1 [Compound 4, 5,5-Bis(4-hydroxyphenyl)hydantoin]",inhibition in vivo at 100 mg/kg,[1]; SART stress mice,33.6%
same,inhibition in vivo at 100 mg/kg,[1]; normal mice,4.8%
same,change in vivo at 100 mg/kg,[2]; [9],162%
same,change in vivo at 100 mg/kg,[2]; [10],41.6%
same,change in vivo at 100 mg/kg,[2]; [11],67.3%
same,change in vivo at 160 mg/kg,[2]; [12],90.5%
same,change in vivo at 100 mg/kg,[2]; [13],52.3%
same,change in vivo at 160 mg/kg,[2]; [14],68.2%
same,Analgesic effect,[2]; [15],88.2%
same,Analgesic effect,[2]; [21],56.8%
same,Analgesic effect,[2]; [16],36.1%
same,Analgesic effect,[2]; [22],38.8%
same,Antiulcerogenic effect on Shay's ulcer (operative ulcer),Wistar-strain male rats; 25 mg/kg intraperitoneal,26.4%
same,Antiulcerogenic effect on Shay's ulcer (operative ulcer),Wistar-strain male rats; 50 mg/kg intraperitoneal,38.0%
same,Antiulcerogenic effect on Shay's ulcer (operative ulcer),Wistar-strain male rats; 100 mg/kg intraperitoneal,50.0%
same,Antiulcerogenic effect on Shay's ulcer (operative ulcer),Wistar-strain male rats; 150 mg/kg intraperitoneal,64.8%
same,Inhibitory effect on exploratory movements,dd-strain male mice [3]; 50 mg/kg intraperitoneal,30.1%
same,Inhibitory effect on exploratory movements,dd-strain male mice [3]; 100 mg/kg intraperitoneal,54.5%
same,Inhibitory effect on exploratory movements,dd-strain male mice [3]; 125 mg/kg intraperitoneal,61.3%
same,Effect of prolongation of sleeping time,ddY-strain male mice; 20 mg/kg intraperitoneal,37.2%
same,Effect of prolongation of sleeping time,ddY-strain male mice; 50 mg/kg intraperitoneal,84.4%
same,change in vivo at 100 mg/kg,ddY-strain male mice,124%
same,LD50 at 72 h,[4]; female,1320 mg/kg
same,LD50 at 72 h,[4]; male,1370 mg/kg
same,Ach-induced contraction of the isolated deodedum,isolated duodenum; 5 mg/kg/day intraperitoneal,61 ± 16%
same,Ach-induced contraction of the isolated deodedum,isolated duodenum; 10 mg/kg/day intraperitoneal,95 ± 10%
same,responders at 100 mg/kg,[5]; [17],60%
same,responders at 100 mg/kg,[5]; [18],40%
same,responders at 100 mg/kg,[5]; [19],50%
same,responders at 160 mg/kg,"[5]; po, SART stress mice",60%
same,responders at 100 mg/kg,[5]; [20],20%
same,responders at 160 mg/kg,"[5]; po, normal mice",40%
same,Analgesic effect,[5]; SART stress mice,40%
same,Analgesic effect,[5]; normal mice,10%
same,LD50 at 72 h,[6]; female,980 mg/kg
same,LD50 at 72 h,[6]; male,1060 mg/kg
same,Inhibitory effect on spontaneous motor activities,dd-strain male mice [7]; 50 mg/kg intraperitoneal,42.4%
same,Inhibitory effect on spontaneous motor activities,dd-strain male mice [7]; 75 mg/kg intraperitoneal,52.2%
same,Inhibitory effect on spontaneous motor activities,dd-strain male mice [7]; 100 mg/kg intraperitoneal,61.4%
same,Rate of antihypertension,[8]; 100 mg/Kg intraperitoneal,21.5%
same,Rate of antihypertension,[8]; 150 mg/Kg intraperitoneal,34.1%
same,Rate of antihypertension,[8]; 300 mg/Kg intraperitoneal,45.7%
